Source: ChEMBL document CHEMBL1140396, “Novel C2-C3' N-peptide linked macrocyclic taxoids. Part 1: Synthesis and biological activities of docetaxel analogues with a peptide side chain at C3'” (Bioorg Med Chem Lett, 2005)

Columns and labels:
KB = assay: Concentration that inhibits cell proliferation (KB cell line) after 72 h of incubation; assay type: functional, cell-based; conditions: Homo sapiens
[1] = Concentration that inhibits the rate of cold-induced microtubule disassembly; assay type: functional
[2] = Concentration that inhibits the rate of cold-induced microtubule disassembly; Inactive; assay type: functional

| IC50 (KB) [µM] | IC50 [1] [µM] | IC50 [2] | Structure (SMILES) |
| --- | --- | --- | --- |
| 1.05 | 1 |  | CC(=O)O[C@@]12COC1C[C@H](O)C1C(=O)[C@H](O)C3=C(C)[C@@H](OC(=O)[C@H](O)[C@@H](NC(=O)NCC(=O)N[C@@H](CO)C(=O)N[C@@H](Cc4ccc(O)cc4)C(=O)O)c4ccccc4)C[C@@](O)([C@@H](OC(=O)c4ccccc4)C12)C3(C)C (some centres undefined) |
| 0.001 | 0.5 |  | CC(=O)O[C@@]12COC1C[C@H](O)C1C(=O)[C@H](O)C3=C(C)[C@@H](OC(=O)[C@H](O)[C@@H](NC(=O)OC(C)(C)C)c4ccccc4)C[C@@](O)([C@@H](OC(=O)c4ccccc4)C12)C3(C)C (some centres undefined) |
| 0.67 | 0.8 |  | CC(=O)O[C@@]12COC1C[C@H](O)C1C(=O)[C@H](O)C3=C(C)[C@@H](OC(=O)[C@H](O)[C@@H](NC(=O)N[C@H](C(=O)O)C(C)C)c4ccccc4)C[C@@](O)([C@@H](OC(=O)c4ccccc4)C12)C3(C)C (some centres undefined) |
| 4.5 | 1.7 |  | CC(=O)O[C@@]12COC1C[C@H](O)C1C(=O)[C@H](O)C3=C(C)[C@@H](OC(=O)[C@H](O)[C@@H](NC(=O)N[C@H](C(=O)N4CCC[C@H]4C(=O)O)C(C)C)c4ccccc4)C[C@@](O)([C@@H](OC(=O)c4ccccc4)C12)C3(C)C (some centres undefined) |
| 0.1 | 0.4 |  | CC(=O)O[C@@]12COC1C[C@H](O)C1C(=O)[C@H](O)C3=C(C)[C@@H](OC(=O)[C@H](O)[C@@H](NC(=O)N[C@H](C(=O)N4CCC[C@H]4C(=O)NCC(=O)OCc4ccccc4)C(C)C)c4ccccc4)C[C@@](O)([C@@H](OC(=O)c4ccccc4)C12)C3(C)C (some centres undefined) |
| 0.05 | 0.5 |  | CC(=O)O[C@@]12COC1C[C@H](O)C1C(=O)[C@H](O)C3=C(C)[C@@H](OC(=O)[C@H](O)[C@@H](NC(=O)N[C@H](C(=O)N4CCC[C@H]4C(=O)OCc4ccccc4)C(C)C)c4ccccc4)C[C@@](O)([C@@H](OC(=O)c4ccccc4)C12)C3(C)C (some centres undefined) |
| 1.1 | 2.6 |  | COC(=O)[C@H](CCSC)NC(=O)[C@H](Cc1ccccc1)NC(=O)[C@@H](NC(=O)N[C@@H](c1ccccc1)[C@@H](O)C(=O)O[C@H]1C[C@@]2(O)[C@@H](OC(=O)c3ccccc3)C3C(C(=O)[C@H](O)C(=C1C)C2(C)C)[C@@H](O)CC1OC[C@]13OC(C)=O)C(C)C (some centres undefined) |
| > 10 | 0.6 |  | CC(=O)O[C@@]12COC1C[C@H](O)C1C(=O)[C@H](O)C3=C(C)[C@@H](OC(=O)[C@H](O)[C@@H](NC(=O)N[C@H](C(=O)N4CCC[C@H]4C(=O)NCC(=O)O)C(C)C)c4ccccc4)C[C@@](O)([C@@H](OC(=O)c4ccccc4)C12)C3(C)C (some centres undefined) |
| 0.09 |  | Not Active | CC(=O)O[C@@]12COC1C[C@H](O)C1C(=O)[C@H](O)C3=C(C)[C@@H](OC(=O)[C@H](O)[C@@H](NC(=O)NCC(=O)N[C@@H](COCc4ccccc4)C(=O)N[C@@H](Cc4ccc(OCc5ccccc5)cc4)C(=O)OCc4ccccc4)c4ccccc4)C[C@@](O)([C@@H](OC(=O)c4ccccc4)C12)C3(C)C (some centres undefined) |
| 0.004 | 0.8 |  | CC(=O)O[C@@]12COC1C[C@H](O)C1C(=O)[C@H](O)C3=C(C)[C@@H](OC(=O)[C@H](O)[C@@H](NC(=O)N[C@H](C(=O)OCc4ccccc4)C(C)C)c4ccccc4)C[C@@](O)([C@@H](OC(=O)c4ccccc4)C12)C3(C)C (some centres undefined) |
| > 10 | 0.5 |  | CC(=O)O[C@@]12COC1C[C@H](O)C1C(=O)[C@H](O)C3=C(C)[C@@H](OC(=O)[C@H](O)[C@@H](NC(=O)N[C@H](C(=O)N4CCC[C@H]4C(=O)NCC(=O)NCC(=O)O)C(C)C)c4ccccc4)C[C@@](O)([C@@H](OC(=O)c4ccccc4)C12)C3(C)C (some centres undefined) |
| 4 | 0.3 |  | CC(=O)O[C@@]12COC1C[C@H](O)C1C(=O)[C@H](O)C3=C(C)[C@@H](OC(=O)[C@H](O)[C@@H](NC(=O)N[C@H](C(=O)N4CCC[C@H]4C(=O)NCC(=O)NCC(=O)OCc4ccccc4)C(C)C)c4ccccc4)C[C@@](O)([C@@H](OC(=O)c4ccccc4)C12)C3(C)C (some centres undefined) |
